Test results reported in article PMC5517430, “2,3,7,8-Tetrachlorodibenzo-p-dioxin (TCDD)-elicited effects on bile acid homeostasis: Alterations in biosynthesis, enterohepatic circulation, and microbial metabolism” (Scientific Reports, 2017).

Test system: hepatic gene expression
Test: Hepatic RNA-Seq differential gene expression (fold change, P1(t), ED50, BMD, BMDL)
Type: in vivo, mouse
Settings: liver
Protocol: Frozen ileal epithelium scrapings and liver samples were homogenized in TRIzol (Ambion, Waltham, MA) using a Mixer Mill 300 tissue homogenizer (Retsch, Germany) and total RNA was isolated as previously described. RNA was quantified using a Nano-drop spectrophotometer (Thermo Scientific, Wilmington, DE) at 260 nm, and purity was assessed using the A260/A280 ratio and the Caliper LabChip GX (Perkin Elmer, Waltham, MA).
Dose-dependent gene expression was examined using RNA-Seq performed at the MSU Research Technology Support Facility (RTSF) Genomics Core (rtsf.natsci.msu.edu/genomics). Ileal libraries from three independent biological replicates (n = 3) were prepared using the Ovation Mouse RNA-Seq System 1–16 sample preparation kit (NuGen, San Carlos, CA), with an additional DNase step. Libraries were quantified and sequenced as previously described, using a read depth of ~30 M per sample[33], [67]. Quality was determined using FASTQC v0.11.3 and adaptor sequences were removed using Trimmomatic v0.33. Reads were mapped to the mouse reference genome (GRCm38 release 81) using Bowtie2 v2.2.6 and TopHat2 v2.1.0. Alignments were converted to SAM format using SAMTools v1.2.0. For TCDD-mediated differential gene expression, fold changes were calculated relative to vehicle controls. Hepatic RNA-Seq analysis was previously published. Genes were considered differentially expressed if |fold change| ≥ 1.5 and statistical P1(t) value ≥ 0.8 at one or more doses. RNA-Seq datasets for the ileal epithelium and liver were deposited in the Gene Expression Omnibus (GEO; accession number GSE89430 and GSE87519, respectively). The RNA-Seq results (fold changes, P1(t) values) for each gene discussed in the manuscript have been compiled in Supplementary Table S1. […] Estimation of benchmark dose (BMD) and BMD lower confidence limit (BMDL) was performed using BMDExpress[69] as previously described, and has been included in Supplementary Table S1.

[1] = 0.01 µg/kg TCDD, relative to vehicle control
[2] = 0.03 µg/kg TCDD, relative to vehicle control
[3] = 0.1 µg/kg TCDD, relative to vehicle control
[4] = 0.3 µg/kg TCDD, relative to vehicle control

Clc1cc2c(cc1Cl)Oc1cc(Cl)c(Cl)cc1O2 [TCDD, 2,3,7,8-tetrachlorodibenzo-p-dioxin]
Slc6a6 (TAUT) BMD: 11.24 µg/kg TCDD
Slc6a6 (TAUT) BMDL: 8.25 µg/kg TCDD
Slc6a6 (TAUT) Differentially Expressed?: YES
Slc6a6 (TAUT) ED50: 13.27 µg/kg TCDD
Slc10a1 (NTCP or LBAT) BMD: 9.13 µg/kg TCDD
Slc10a1 (NTCP or LBAT) BMDL: 4.73 µg/kg TCDD
Slc10a1 (NTCP or LBAT) Differentially Expressed?: YES
Slc10a1 (NTCP or LBAT) ED50: 14.43 µg/kg TCDD
Slc27a5 BMD: 4.42 µg/kg TCDD
Slc27a5 BMDL: 3.04 µg/kg TCDD
Slc27a5 Differentially Expressed?: YES
Slc27a5 ED50: 11.65 µg/kg TCDD
Slco1a1 (OATP1A1) BMD: 8.64 µg/kg TCDD
Slco1a1 (OATP1A1) BMDL: 3.68 µg/kg TCDD
Slco1a1 (OATP1A1) Differentially Expressed?: YES
Slco1a1 (OATP1A1) ED50: 10.06 µg/kg TCDD
Slco1a4 (OATP1A4) BMD: 0.56 µg/kg TCDD
Slco1a4 (OATP1A4) BMDL: 0.000105 µg/kg TCDD
Slco1a4 (OATP1A4) Differentially Expressed?: YES
Slco1a4 (OATP1A4) ED50: Not sigmoidal
Slco1b2 (OATP1B2) BMD: 6.99 µg/kg TCDD
Slco1b2 (OATP1B2) BMDL: 4.27 µg/kg TCDD
Slco1b2 (OATP1B2) Differentially Expressed?: YES
Slco1b2 (OATP1B2) ED50: 12.87 µg/kg TCDD
Slco2b1 (OATP2B1) BMD: 4.52 µg/kg TCDD
Slco2b1 (OATP2B1) BMDL: 2.69 µg/kg TCDD
Slco2b1 (OATP2B1) Differentially Expressed?: YES
Slco2b1 (OATP2B1) ED50: 11.16 µg/kg TCDD
Soat1 BMD: No model fit
Soat1 BMDL: No model fit
Soat1 Differentially Expressed?: YES
Soat1 ED50: 8.88 µg/kg TCDD
Soat2 BMD: 7.18 µg/kg TCDD
Soat2 BMDL: 5.55 µg/kg TCDD
Soat2 Differentially Expressed?: YES
Soat2 ED50: Not sigmoidal
Sqle BMD: No model fit
Sqle BMDL: No model fit
Sqle Differentially Expressed?: YES
Sqle ED50: 19.37 µg/kg TCDD
Srebf2 BMD: 8.52 µg/kg TCDD
Srebf2 BMDL: 4.75 µg/kg TCDD
Srebf2 Differentially Expressed?: YES
Srebf2 ED50: 15.74 µg/kg TCDD
Sult2a8 BMD: 1.73 µg/kg TCDD
Sult2a8 BMDL: 1.40 µg/kg TCDD
Sult2a8 Differentially Expressed?: YES
Sult2a8 ED50: 11.63 µg/kg TCDD
Tm7sf2 BMD: 14.47 µg/kg TCDD
Tm7sf2 BMDL: 11.85 µg/kg TCDD
Tm7sf2 Differentially Expressed?: YES
Tm7sf2 ED50: 17.41 µg/kg TCDD
Slc6a6 (TAUT) FC_0.01 [1]: 0.98
Slc10a1 (NTCP or LBAT) FC_0.01 [1]: 1.06
Slc27a5 FC_0.01 [1]: 0.96
Slco1a1 (OATP1A1) FC_0.01 [1]: 1.85
Slco1a4 (OATP1A4) FC_0.01 [1]: 0.83
Slco1b2 (OATP1B2) FC_0.01 [1]: 0.99
Slco2b1 (OATP2B1) FC_0.01 [1]: 1.02
Soat1 FC_0.01 [1]: 0.61
Soat2 FC_0.01 [1]: 1.08
Sqle FC_0.01 [1]: 1.57
Srebf2 FC_0.01 [1]: 1.04
Sult2a8 FC_0.01 [1]: 1.07
Tm7sf2 FC_0.01 [1]: 1.06
Slc6a6 (TAUT) FC_0.03 [2]: 0.99
Slc10a1 (NTCP or LBAT) FC_0.03 [2]: 1.13
Slc27a5 FC_0.03 [2]: 0.89
Slco1a1 (OATP1A1) FC_0.03 [2]: 1.27
Slco1a4 (OATP1A4) FC_0.03 [2]: 0.81
Slco1b2 (OATP1B2) FC_0.03 [2]: 1.11
Slco2b1 (OATP2B1) FC_0.03 [2]: 0.97
Soat1 FC_0.03 [2]: 0.71
Soat2 FC_0.03 [2]: 1.02
Sqle FC_0.03 [2]: 1.40
Srebf2 FC_0.03 [2]: 1.10
Sult2a8 FC_0.03 [2]: 1.00
Tm7sf2 FC_0.03 [2]: 0.92
Slc6a6 (TAUT) FC_0.1 [3]: 1.04
Slc10a1 (NTCP or LBAT) FC_0.1 [3]: 0.87
Slc27a5 FC_0.1 [3]: 0.83
Slco1a1 (OATP1A1) FC_0.1 [3]: 0.82
Slco1a4 (OATP1A4) FC_0.1 [3]: 0.42
Slco1b2 (OATP1B2) FC_0.1 [3]: 1.02
Slco2b1 (OATP2B1) FC_0.1 [3]: 0.91
Soat1 FC_0.1 [3]: 1.03
Soat2 FC_0.1 [3]: 1.01
Sqle FC_0.1 [3]: 1.57
Srebf2 FC_0.1 [3]: 1.00
Sult2a8 FC_0.1 [3]: 0.89
Tm7sf2 FC_0.1 [3]: 0.82
Slc6a6 (TAUT) FC_0.3 [4]: 1.15
Slc10a1 (NTCP or LBAT) FC_0.3 [4]: 1.02
Slc27a5 FC_0.3 [4]: 0.88
Slco1a1 (OATP1A1) FC_0.3 [4]: 1.03
Slco1a4 (OATP1A4) FC_0.3 [4]: 0.87
